# Test results taken from US8900626B2, “Transdermal drug delivery system and method of using the same” (Senju USA, Inc., priority 2011, dated 2014).
# Where two headings read alike, the source gives them in different places.
# Experimental: In vitro permeation study through hairless mouse skin to investigate the skin permeability of clobetasol propionate, amcinonide, betamethasone dipropionate, loteprednol etabonate, dexamethasone, prednisolone acetate and its metabolite (prednisolone).
# Steroid patches were prepared according to the following procedure. The steroid (clobetasol propionate, amcinonide, betamethasone dipropionate, loteprednol etabonate, dexamethasone, or prednisolone acetate) was weighed in a clear polypropylene cup. 2 mL of ethyl acetate was added, and dispersed by ultrasonic wave using an ultrasonicator. DURO-TAK® 87-4098 was carefully added in the clear polypropylene cup. The components were mixed using a spatula, and then the lid of the cup was closed to avoid evaporation. A coating bar was adjusted to about 370 μm to control the thickness. The product material was carefully dispensed onto release liner near the coating bar. The coating process was started by moving the coating bar with the hand. The coated sheet was transferred to the oven and heated at 80° C. for 10±1 minutes. The dried sheet was removed from the oven, and laminated with the polyethylene terephthalate film. The thickness of the patch was checked.
# The abdominal skin of 6 hairless, 8 week old, female mice were used for in vitro skin permeation experiment. (Horizontal cell, effective volume: 5 mL, effective area: 0.64 cm^2). […] The experimental temperature was controlled at 37° C., and 400 μL it of receptor solution was sampled at 1, 2, 3, 4, 5, 6, 9, 12, 22, 28, 34 and 48 hours. Thereafter, the same amount of the 40% polyethylene glycol 400 solution was added to the receptor cell. The concentration of each steroid in the sampled receptor solution was analyzed with HPLC.
# [1] = female, hairless, mouse, 5 % (steroid in patch)
Structure (SMILES),"lag-time, times shorter than dexamethasone [1] [times]","lag-time, times shorter than prednisolone [1] [times]","steady-state penetration rate, times higher than that of dexamethasone [1] [times]","steady-state penetration rate, times higher than that of prednisolone [1] [times]","lag-time, times shorter than dexamethasone [times]","lag-time, times shorter than prednisolone [times]","steady-state penetration rate, times higher than that of dexamethasone [times]","steady-state penetration rate, times higher than that of prednisolone [times]"
"CCC(=O)O[C@]1(C(=O)CCl)[C@@H](C)C[C@H]2[C@@H]3CCC4=CC(=O)C=C[C@]4(C)[C@@]3(F)[C@@H](O)C[C@@]21C [clobetasol, clobetasol propionate]",6,7,8,14,,,,
CC(=O)OCC(=O)[C@@]12OC3(CCCC3)O[C@@H]1C[C@H]1[C@@H]3CCC4=CC(=O)C=C[C@]4(C)[C@@]3(F)[C@@H](O)C[C@@]12C [amcinonide],4,5,10,20,,,,
"CCOC(=O)O[C@]1(C(=O)OCCl)CC[C@H]2[C@@H]3CCC4=CC(=O)C=C[C@]4(C)[C@H]3[C@@H](O)C[C@@]21C [loteprednol, loteprednol etabonate]",4,5,7,12,,,,
"CCC(=O)OCC(=O)[C@@]1(OC(=O)CC)[C@@H](C)C[C@H]2[C@@H]3CCC4=CC(=O)C=C[C@]4(C)[C@@]3(F)[C@@H](O)C[C@@]21C [betamethasone, betamethasone dipropionate]",,,,,3,4,3,6
